Measured values reported in patent US20010014732A1, “Biocidal proteins” (ZENECA Limited, priority 1991, published 2001).
Values joined by “and” are separate entries in the source; they are usually repeats but may differ in a detail not shown here. Equal entries are not always repeated.

Assays:
[1] = tested on: Cercospora beticola (strain E897); test: Anti-fungal activity against foliar disease: in vivo test on sugarbeet plants; conditions: foliar spray one day prior to inoculation
[2] = tested on: Bacillus megaterium ATCC 13632; assay type: cell-based
[3] = tested on: Cercospora beticola strain K897; assay type: cell-based
[4] = tested on: Rhizoctonia solani CBS 207-84; assay type: cell-based
[5] = tested on: Fusarium oxysporum f.sp. pisi IMI 236441; assay type: cell-based
[6] = tested on: Agrobacterium tumefaciens C58, Alcaligenes eutrophus, Azospirillum brasilense Sp7, Bacillus megaterium ATCC 13632, Erwinia carotovora strain 3912, Escherichia …; assay type: cell-based
[7] = tested on: Septoria nodorum MUCL 30111; assay type: cell-based
[8] = tested on: Fusarium culmorum IMI 180420; assay type: cell-based
[9] = tested on: Venturia inaegualis MUCL 15927; assay type: cell-based
[10] = tested on: plant pathogenic fungi; assay type: cell-based
[11] = tested on: F culmorum and T hamatum; assay type: cell-based, Fusarium culmorum, Trichoderma hamatum
Protocol: Antifungal activity was measured by microspectrophotometry as previously described (Broekaert, 1990, FEMS Microbiol Lett, 69:55-60). Routinely, tests were performed with 20 μl of a (filter-sterilized) test solution and 80 μl of a suspension of fungal spores (2×10^4 spores/ml) in half strength potato dextrose broth (1/2 PDB). Some tests were performed using a suspension of mycelium fragments in a synthetic growth medium. […] Control microcultures contained 20 μl of sterile distilled water and 80 μl of the fungal suspension.
Unless otherwise stated the test organism was Fusarium culmorum (strain IMI 180420) and incubation was done at 25° C. for 48 hours. Percent growth inhibition is defined as 100 times the ratio of the corrected absorbance of the control microculture minus the corrected absorbance of the test microculture over the corrected absorbance at 595 nm of the control microculture. The corrected absorbance values equal the absorbance at 595 nm of the culture measured after 48 hours minus the absorbance at 595 nm measured after 30 min.
The effect of ions on the antifungal activity of the Rs-AFPs and Rs-nsLTP was examined in more detail. […] The reference medium was the synthetic growth medium described in Example 1 which contains a total of 2.5 mM monovalent cations and 0.1 mM divalent cations. […]

[12] = tested on: Trichoderma hamatum MUCL 29736; assay type: cell-based
[13] = tested on: Sclerotinia sclerotianum MUCL 30163; assay type: cell-based

Compound: CCCCC(O)(Cn1cncn1)c1ccc(Cl)cc1Cl (stereo not shown) [hexaconazole, reference compound]
- concentration giving 50% control of the disease [1]: approximately 7 μM

Compound: Rs-AFP2: antifungal protein from Raphanus sativus (radish) seeds, oligomeric, identical 5 kDa subunits, highly basic (QKLCQRPSGTWSGVCGNNNACKNQCIRLEKARHGSCNYVFPAHKCICYFPC; UniProt P30230 30-80, looked up)
- concentration causing 50% inhibition of growth [2]: 200 µg/mL
- IC50 [3]: 2 μg/m1 and 3 μg/m1
- concentration giving 50% control of the disease [1]: approximately 15 μM
- IC50 [4]: >100 μg/m1
- IC50 [5]: 2 μg/m1
- effect on the other bacteria [6]: no effect
- IC50 [7]: 15 μg/m1 and 20 μg/m1
- IC50 [8]: 2 µg/mL and 5 µg/mL
- antifungal activity of the reversed-phase HPLC peak in medium A and medium B [8]: active in both medium A and medium B
- IC50 [9]: 25 μg/m1 and >50 μg/m1
- fungi inhibited by more than 50% at concentrations below 100 μg/ml [10]: 11 out of 18
- effect of Ca2+ on antifungal activity ([11]; CaCl2 at 5 mM): varied from a slight increase in IC50 for F culmorum to complete inactivation for T hamatum
- effect of K+ on antifungal activity ([11]; KCl at up to 50 mM): did not affect the antifungal activity
- IC50 [12]: 2 µg/mL
- IC50 [13]: >100 μg/m1
